The source of these data is patent US20250144067A1, “PERSONALIZED STARVATION THERAPY FOR CANCER” (Faeth Therapeutics, Inc., priority 2021, published 2025).

Where a name gives a salt, the structure may show the parent alone. Read-outs that look alike come from different tables or passages of the source.

Test [1] has as its system NCI-H292 lung cancer cells. The test can be described thus: FDA drug screening, complete media vs cholesterol-free media with simvastatin (TABLE 2). The test is classed as cell-based, human.
For test [2], the system named is NCI-H292 lung cancer cells. The test can be described thus: FDA drug screening, complete media vs cholesterol-free media without statin (TABLE 1). It counts as cell-based, human.
The mark [3] stands for this setting: NCI-H292 cells, FDA drug library screen, cholesterol-free media with simvastatin 0.04 μM.
Setting [4] is: NCI-H292 cells, FDA drug library screen, complete media.
The mark [5] stands for this setting: complete media minus cholesterol-free media + simvastatin, >0 enhanced anti-cancer activity, about 0 neutral, <0 antagonist.
[6] abbreviates: Complete minus Cholesterol-free, greater than 0 enhanced anti-cancer activity, about 0 neutral, below 0 antagonist.
[7] abbreviates: NCI-H292 cells, FDA drug library screen, cholesterol-free media without statin.
Setting [8] is: NCI-H292 cells, cholesterol-free media with simvastatin 0.04 μM, FDA drug library screen (TABLE 2).
The mark [9] stands for this setting: NCI-H292 cells, complete media, FDA drug library screen (TABLE 2).
[10] abbreviates: complete media minus cholesterol-free media + simvastatin (0.04 μM), >0 enhanced anti-cancer activity, about 0 neutral, <0 antagonist.
[11] abbreviates: NCI-H292 cells, drug in cholesterol-free media with simvastatin 0.04 μM.
Where [12] appears, read: NCI-H292 cells, drug in complete media.
The mark [13] stands for this setting: complete media vs cholesterol-free media + simvastatin (0.04 μM), >0 enhanced anti-cancer activity, about 0 neutral, <0 antagonist.
Setting [14] is: NCI-H292 cells, cholesterol-free media without statin.
Setting [15] is: complete vs cholesterol-free media, greater than 0 enhanced anti-cancer activity, about 0 neutral, below 0 antagonists.
The mark [16] stands for this setting: NCI-H292 cells, cholesterol-free media with simvastatin 0.04 μM, cell growth value in FDA drug screen.
Where [17] appears, read: NCI-H292 cells, complete media, cell growth value in FDA drug screen.
Setting [18] is: Complete minus Cholesterol-free, >0 enhanced anti-cancer activity, about 0 neutral, <0 antagonist.
Where [19] appears, read: NCI-H292 cells, cholesterol-free media without statin, FDA drug library screen.
The mark [20] stands for this setting: NCI-H292 cells, complete media, FDA drug library screen.
Where [21] appears, read: Complete minus Cholesterol-free, […].

On to `CN(C)CCCN1c2ccccc2Sc2ccccc21` [Promazine (hydrochloride)], for which the “Cholesterol-free media + simvastatin (0.04 μM)” value in test [1] (setting [3]) came out at 0.8407. Further, the “Complete Media” value in test [1] (setting [4]) turned out to be 0.9785. The Difference in test [1] (setting [5]) is 0.14; in test [2] (setting [6]) it was −0.18. Besides, the Cholesterol-free in test [2] (setting [7]) is 1.243. For the same compound, the Complete in test [2] (setting [4]) came to 1.064.

Take `CCCN1CC(c2ccc(S(C)(=O)=O)cc2)=C(c2ccc(C)cc2)C1=O` [Imrecoxib]: the “Cholesterol-free media + simvastatin (0.04 μM)” value in test [1] (setting [8]) is 1.183. In test [1] (setting [9]), the “Complete Media” value was 1.141. Also, the Difference in test [1] (setting [10]) was −0.04; in test [2] (Complete minus Cholesterol-free, greater than 0 enhanced anti-cancer activity, about 0 neutral, below 0 antagonists) it was −0.54. Further, the Cholesterol-free in test [2] (NCI-H292 cells in cholesterol-free media without statin) is 1.763. The same compound came in with a Complete in test [2] (NCI-H292 cells in complete media) of 1.221.

With Pefloxacin (mesylate), the “Cholesterol-free media + simvastatin (0.04 μM)” value in test [1] (setting [11]) worked out at 1.02. Also, in test [1] (setting [12]), the “Complete Media” value amounted to 0.8577. The results for the Difference in test [1] (setting [13]) and in test [2] (setting [15]) were −0.16 and −0.32, respectively. The same compound registered a Cholesterol-free in test [2] (setting [14]) of 1.183. In test [2] (NCI-H292 cells, complete media), the Complete was found to be 0.8627.

Take `CN[C@H](CC(C)C)C(=O)N[C@H]1C(=O)N[C@@H](CC(N)=O)C(=O)N[C@H]2C(=O)N[C@H]3C(=O)N[C@H](C(=O)N[C@H](C(=O)O)c4cc(O)cc(O)c4-c4cc3ccc4O)[C@H](O)c3ccc(c(Cl)c3)Oc3cc2cc(c3O[C@@H]2O[C@H](CO)[C@@H](O)[C@H](O)[C@H]2O[C@H]2C[C@](C)(N)[C@H](O)[C@H](C)O2)Oc2ccc(cc2Cl)[C@H]1O` [Vancomycin (hydrochloride)]: in test [1], the “Cholesterol-free media + simvastatin (0.04 μM)” value is given as 0.8152, the “Complete Media” value came out at 0.7422 and the Difference is −0.07. Also, in test [2], the Cholesterol-free came to 0.8305, the Complete came out at 0.7537 and the Difference was −0.08.

On to `CCC(Cc1c(I)cc(I)c(N)c1I)C(=O)O` (stereo not drawn) [Iopanoic acid], for which the “Cholesterol-free media + simvastatin (0.04 μM)” value in test [1] (setting [3]) came out at 1.115. Further, the “Complete Media” value in test [1] (setting [4]) amounted to 1.353. Moreover, the Difference is 0.24 in test [1] (setting [5]) and −0.10 in test [2] (setting [6]). The compound further yielded a Cholesterol-free in test [2] (setting [7]) of 1.02. For the same compound, the Complete in test [2] (setting [4]) was found to be 0.9191.

Consider `CC1(C)O[C@@H]2C[C@H]3[C@@H]4C[C@H](F)C5=CC(=O)C=C[C@]5(C)[C@H]4[C@@H](O)C[C@]3(C)[C@]2(C(=O)CO)O1` [Flunisolide], for which the “Cholesterol-free media + simvastatin (0.04 μM)” value in test [1] (setting [16]) amounted to 0.5373. Moreover, the “Complete Media” value in test [1] (setting [17]) is on record as 0.6048. Moreover, the Difference is recorded as 0.07 in test [1] (setting [5]) and −0.06 in test [2] (setting [18]). In addition, the Cholesterol-free in test [2] (setting [19]) turned out to be 0.8546. For the same compound, the Complete in test [2] (setting [20]) was determined as 0.7935.

As for `C[C@@H]1C[C@H]2[C@@H]3CCC4=CC(=O)C=C[C@]4(C)[C@@]3(Cl)[C@@H](O)C[C@]2(C)[C@@]1(OC(=O)c1ccco1)C(=O)CCl` [Mometasone furoate], the “Cholesterol-free media + simvastatin (0.04 μM)” value in test [1] (setting [16]) is given as 0.7611. Further, in test [1] (setting [17]), the “Complete Media” value worked out at 0.8877. In addition, the Difference in test [1] (setting [5]) was 0.13; in test [2] (setting [18]), −0.24. Further, the Cholesterol-free in test [2] (setting [14]) is recorded as 0.8128. In test [2] (NCI-H292 cells, complete media), this compound came in with a Complete of 0.5699.

As for `COC(=O)N[C@H](C(=O)N1CCC[C@H]1C(=O)Nc1ccc([C@@H]2CC[C@@H](c3ccc(NC(=O)[C@@H]4CCCN4C(=O)[C@@H](NC(=O)OC)C(C)C)cc3)N2c2ccc(C(C)(C)C)cc2)cc1)C(C)C` [Ombitasvir], in test [1] (setting [8]), the “Cholesterol-free media + simvastatin (0.04 μM)” value is listed as 0.6017. The “Complete Media” value in test [1] (setting [9]) came to 0.5358. Moreover, the Difference in test [1] (complete media minus cholesterol-free media + simvastatin (0.04 μM), […]) is recorded as −0.07; in test [2] (setting [21]), −0.17. Also, the Cholesterol-free in test [2] (setting [7]) is recorded as 1.001. The Complete in test [2] (setting [4]) was 0.8331.

For `C[C@H](CCC(=O)O)[C@H]1CC[C@H]2[C@@H]3C[C@H](O)[C@@H]4C[C@H](O)CC[C@]4(C)[C@H]3CC[C@]12C` [Hyodeoxycholic acid], the “Cholesterol-free media + simvastatin (0.04 μM)” value in test [1] (setting [3]) came to 0.7549. Further, in test [1] (setting [4]), the “Complete Media” value was determined as 0.9966. The Difference in test [1] (setting [5]) is 0.24; in test [2] (setting [15]) it was −0.45. In test [2] (setting [14]), this compound yielded a Cholesterol-free of 1.462. In test [2] (NCI-H292 cells, complete media), this compound returned a Complete of 1.016.

Regarding `OC1(c2ccc(Cl)c(C(F)(F)F)c2)CCN(CCCC(c2ccc(F)cc2)c2ccc(F)cc2)CC1` [Penfluridol], the “Cholesterol-free media + simvastatin (0.04 μM)” value in test [1] (setting [8]) is given as 1.076. The “Complete Media” value in test [1] (setting [9]) is listed as 1.033. Also, the Difference is on record as −0.04 in test [1] (setting [10]) and −0.14 in test [2] (setting [6]). This compound also returned a Cholesterol-free in test [2] (setting [7]) of 0.7419. Also, the Complete in test [2] (setting [4]) is recorded as 0.6047.

Take `O=C(Nc1cnn2ccc(N3CCC[C@@H]3c3cc(F)ccc3F)nc12)N1CC[C@H](O)C1` [Larotrectinib sulfate]: the “Cholesterol-free media + simvastatin (0.04 μM)” value in test [1] (setting [11]) worked out at 1.922. Further, the “Complete Media” value in test [1] (setting [12]) is 1.699. The Difference in test [1] (setting [13]) is recorded as −0.22; in test [2] (complete vs cholesterol-free media, >0 enhanced anti-cancer activity, about 0 neutral, <0 antagonist) it was 0.21. Besides, the Cholesterol-free in test [2] (setting [19]) worked out at 1.525. The compound also had a Complete in test [2] (setting [20]) of 1.739.

In the case of `NCC[C@H](O)C(=O)N[C@@H]1C[C@H](N)[C@@H](O[C@H]2O[C@H](CN)[C@@H](O)[C@H](O)[C@H]2O)[C@H](O)[C@H]1O[C@H]1O[C@H](CO)[C@@H](O)[C@H](N)[C@H]1O` [Amikacin (disulfate)], in test [1] (setting [3]), the “Cholesterol-free media + simvastatin (0.04 μM)” value is on record as 0.8392. The “Complete Media” value in test [1] (setting [4]) came to 1.245. The Difference in test [1] (complete media minus cholesterol-free media + simvastatin, […]) is 0.41; in test [2] (setting [21]), −0.09. Further, the Cholesterol-free in test [2] (setting [7]) was 0.9569. For the same compound, the Complete in test [2] (setting [4]) was 0.8685.

As to `Cc1cc2c(cc1S(N)(=O)=O)S(=O)(=O)CCC2` [Meticrane], in test [1] (NCI-H292 cells, FDA library drug in cholesterol-free media with simvastatin 0.04 μM), the “Cholesterol-free media + simvastatin (0.04 μM)” value amounted to 1.393. Moreover, the “Complete Media” value in test [1] (NCI-H292 cells, FDA library drug in complete media) worked out at 0.8316. Besides, the Difference is reported as −0.56 in test [1] (setting [13]) and −0.25 in test [2] (setting [18]). The same compound registered a Cholesterol-free in test [2] (setting [14]) of 1.363. The Complete in test [2] (NCI-H292 cells, complete media) amounted to 1.109.

As for `Cl.NCCC[C@H](N)C(=O)O` [L-Ornithine (hydrochloride)], the “Cholesterol-free media + simvastatin (0.04 μM)” value in test [1] (setting [8]) is listed as 0.8763. Further, in test [1] (setting [9]), the “Complete Media” value came to 0.8132. Also, the Difference is −0.06 in test [1] (setting [10]) and −0.11 in test [2] (setting [6]). The Cholesterol-free in test [2] (setting [7]) was found to be 1.434. This compound also had a Complete in test [2] (setting [4]) of 1.328.

Take `Nc1ncn([C@@H]2O[C@H](CO)[C@@H](O)[C@H]2O)c(=O)n1` [5-Azacytidine]: the “Cholesterol-free media + simvastatin (0.04 μM)” value in test [1] (setting [8]) was found to be 0.9383. In test [1] (setting [9]), the “Complete Media” value is recorded as 0.8858. Besides, the figures for the Difference in test [1] (setting [10]) and in test [2] (setting [15]) were −0.05 and −0.35, respectively. Further, the Cholesterol-free in test [2] (setting [14]) amounted to 1.157. The compound further showed a Complete in test [2] (NCI-H292 cells, complete media) of 0.8064.

For the compound `O=C(CCCCCCC(=O)Nc1ccccc1)NO` [Vorinostat], the “Cholesterol-free media + simvastatin (0.04 μM)” value in test [1] (setting [11]) turned out to be 0.872. Besides, in test [1] (setting [12]), the “Complete Media” value is reported as 0.635. Moreover, the results for the Difference in test [1] (setting [13]) and in test [2] (setting [6]) were −0.24 and −0.17, respectively. The Cholesterol-free in test [2] (setting [7]) is listed as 0.4861. The compound also had a Complete in test [2] (setting [4]) of 0.3154.

Turning to `NC(=NCc1ccccc1)NC(=O)c1nc(Cl)c(N)nc1N` [Benzamil (hydrochloride)], the “Cholesterol-free media + simvastatin (0.04 μM)” value in test [1] (setting [8]) was 0.8193. For the same compound, the “Complete Media” value in test [1] (setting [9]) was found to be 0.8118. Moreover, the Difference is given as −0.01 in test [1] (setting [10]) and −0.30 in test [2] (setting [18]). The compound also gave a Cholesterol-free in test [2] (setting [14]) of 0.9643. This compound also returned a Complete in test [2] (NCI-H292 cells, complete media) of 0.6686.
